Several values for one entry are separate records, joined by “and”; a condition that tells them apart may be missing. Equal values may be shown once.
Tests used:
[1] = tested on: NIH-3T3; assay: In vitro growth inhibition (GI50), SRB assay, normal fibroblast; type: cell-based, mouse; settings: NIH-3T3 normal murine fibroblast cell line, 3 days
Text: The following cell lines were selected from the cell bank for screening and GI50 studies: MCF-7: human breast tumor, MCF-7/ADR: MCF-7 adriamycin resistant subline, HT-29: human colon carcinoma, A-549: human non-small cell lung cancer, NIH-3T3: mouse Swiss embryo fibroblast and WI-38: human lung fibroblast, SKMEL-28: human melanoma, Lewis Lung: mouse lung carcinoma, DU-145: prostate carcinoma, B16F10: mouse melanoma, L1210: murine lymphocytic leukemia, P-388: murine leukemia, U-937: human histolytic lymphoma. Except HT-29, WI-38, NIH-3T3 and Lewis Lung which were obtained from the American Type Culture Collection (Rockville, Md.) all the other cell lines were obtained from National Cancer Institute—Frederick Research Facility (Frederick, Md.). All the cell lines were grown in RPMI-1640 medium containing 10% fetal bovine serum (FBS) except WI-38 and DU-145 which were grown in EMEM+10% FBS at 37° C., 5% CO2 and 100% humidity and NIH-3T3, Lewis Lung, B16F10 and L1210 which were grown in DMEM containing 10% FBS (10% HS for L1210). […]
The test compounds were made in-house and the compounds were dissolved PBS or saline at a stock concentration of approximately 20 mM, which is 400 times the desired final maximum test concentration. […] After 3 days of incubation, cell growth was determined.
The SRB assay was performed as described by Monks, A., Scudiero, D., Skehan, P., Shoemaker, R., Paull, K., Vistica, D., Hose, C., Langley, J., Cronise, P., and Vaigro-Wolff, A. Feasibility of a high-flux anticancer drug screen using a diverse panel of cultured human tumo-r cell lines. […] Bound SRB was solubilized with Tris buffer (10 mM), and the ODs were read using an automated plate reader (Bio-Rad, Model 3550-UV) at 490 nm. Background values were subtracted from the test data, and the data was calculated as a % of control. […] Percentage growth was calculated as described by, Peters, A. C., Ahmad, I., Janoff, A. S., Pushkareva, M. Y., and Mayhew, E. Growth Inhibitory effects of liposome-associated 1-o-octadecyl-2-o-methyl-sn-glycero-3-phosphocholine. […]

[2] = tested on: A-549/ATCC; assay: NCI growth inhibition screen, non-small cell lung panel; type: cell-based, human; parameters: key: = means equivalent activity; + means that it appears to be significantly better (i.e., by ˜2x); < means it appears to be less active than ET18OCH3 (˜2x); a combination like =/+ or </+ means that activity is dependent upon the isomer; a combination like =/+ or </+ means that activity is dependent upon the isomer; settings: NS cell lung, from GI50s
Procedure: (§1) Candidates deemed suitable for in vivo testing were then synthesized in large scale quantities and some of this material was sent to the NCI's Developmental Therapeutics Program for a battery of growth inhibitory studies against various human tumor cell lines (60 cell lines, 9 different panels). The remainder of the material was used to assess in vivo efficacy using murine tumor models. Additionally, studies were conducted on the lead candidates to discern mechanism of action with particular emphasis on these agents apoptotic ability as measured by caspase 3 activity. The details (materials and methods) for these various assays are described further in the following discussion.
(§2) Ten compounds were also sent to NCI's Drug Discovery Program for screening against numerous human tumor cell lines (9 panels total: renal ovarian, colon, CNS, non-small cell lung, leukemia, breast, melanoma, and prostate). The data are shown in FIGS. 2a-i which also include data regarding D- and L-ET-18-OCH3 (listed as L-EL and D-EL in the figures). Upon examining the data, one is struck by how 1R and 1a′S standout in comparison to the other compounds, especially for the renal, ovarian, colon, and CNS panels.

[3] = tested on: EKVX; assay: as above; type: cell-based, human; parameters: key: = means equivalent activity; + means that it appears to be significantly better (i.e., by ˜2x); < means it appears to be less active than ET18OCH3 (˜2x); a combination like =/+ or </+ means that activity is dependent upon the isomer; a combination like =/+ or </+ means that activity is dependent upon the isomer; settings: NS cell lung, from GI50s
Procedure: as §1, §2

[4] = tested on: HOP-92; assay: as above; type: cell-based, human; parameters: key: = means equivalent activity; + means that it appears to be significantly better (i.e., by ˜2x); < means it appears to be less active than ET18OCH3 (˜2x); a combination like =/+ or </+ means that activity is dependent upon the isomer; a combination like =/+ or </+ means that activity is dependent upon the isomer; settings: HOP-92, NS cell lung; from GI50s
Procedure: as §1, §2

[5] = tested on: NCI-H332M; assay: as above; type: cell-based, human; parameters: key: = means equivalent activity; + means that it appears to be significantly better (i.e., by ˜2x); < means it appears to be less active than ET18OCH3 (˜2x); a combination like =/+ or </+ means that activity is dependent upon the isomer; a combination like =/+ or </+ means that activity is dependent upon the isomer; settings: NS cell lung, from GI50s
Procedure: as §1, §2

[6] = tested on: NCI-H460; assay: as above; type: cell-based, human; parameters: key: = means equivalent activity; + means that it appears to be significantly better (i.e., by ˜2x); < means it appears to be less active than ET18OCH3 (˜2x); a combination like =/+ or </+ means that activity is dependent upon the isomer; a combination like =/+ or </+ means that activity is dependent upon the isomer; settings: NCI-H460, NS cell lung; from GI50s
Procedure: as §1, §2

Compound | GI50 [1] | Performance as compared to ET-18-O—CH3 [2] | Performance as compared to ET-18-O—CH3 [3] | Performance as compared to ET-18-O—CH3 [4] | Performance as compared to ET-18-O—CH3 [5] | Performance as compared to ET-18-O—CH3 [6]
CCCCCCCCCCCCCCCCCCOC[C@@H](COP(=O)([O-])OCC[N+](C)(C)C)OS(C)(=O)=O [1a′S] | 30.3 µM and 35.2 µM | 0 | 0 | 0 | 0 | 0
CCCCCCCCCCCCCCCCCCOCC(COP(=O)([O-])OCC[N+](C)(C)C)OS(C)(=O)=O (stereo not drawn) [Compound 1aR] | – | = | = | = | = | =
CCCCCCCCCCCCCCCCCCOCC(COP(=O)([O-])OCC[N+](C)(C)C)OC [D-ET18OCH3, 1-O-octadecyl-2-O-methyl-glycerophosphocholine, reference compound] | 41.4 µM | – | – | – | – | –
